Measured values as given in publication PMC9930781, “Design, synthesis, docking, and anticancer evaluations of new thiazolo[3,2-a] pyrimidines as topoisomerase II inhibitors” (Journal of Enzyme Inhibition and Medicinal Chemistry, 2023).
Where two headings read alike, the source gives them in different places.

Columns and labels:
[1] = tested on: A549 non-small cell lung cancer (NSCLC) cell line; test: MTT cytotoxicity assay, A549; settings: Homo sapiens, A549, 24 h
Method: (§1) The MTT test was used to evaluate the inhibitory effects of the substances on cell proliferation in the aforementioned cell lines. This colorimetric assay targets the mitochondrial succinate dehydrogenase of living cells to change yellow tetrazolium bromide (MTT) to a purple formazan derivative. […] Then, the cells were incubated for 24 h and exposed to various chemical concentrations. 20 μL of a 5 mg/mL MTT solution was applied after a 24-h drug treatment period and incubated for 4 h. To dissolve the produced purple formazan, each well receives 100 μL of dimethyl sulfoxide (DMSO). […] The formula for calculating the relative percentage of cell viability was (A570 of treated samples/A570 of the untreated sample) × 100.

[2] = tested on: A498 renal cell carcinoma cell line; test: MTT cytotoxicity assay, A498; settings: Homo sapiens, A498, 24 h
Method: as §1

human topoisomerase II = human topoisomerase II (Homo sapiens, UniProt P11388); test: DNA Topo II inhibition (kDNA decatenation) assay; format: biochemical; settings: for IC50: kDNA decatenation, four concentrations 0.1-100 µM, mean ± SD of two independent assays
Method: The ATP-dependent decatenation of kinetoplast DNA (kDNA) obtained from Crithidia fasciculata, which consists of a network of numerous minicircles (2.3 Kb) and some maxicircles, was used to measure topoisomerase II inhibition. Reactions took place in 20 μL and comprised topoisomerase II, 200–300 ng of kDNA, and 120 mM KCl with 50 mM Tris-HCl, pH 8, 10 mM MgCl2, 0.5 mM ATP, and 0.5 mM dithiothreitol. In preliminary tests, the quantity of topoisomerase II (5 units) was changed to decatenate almost 100% of the kDNA under these assay circumstances. […] The products in the reaction mixture were separated by a 1% agarose gel after the reaction was complete and then could be seen after being stained with ethidium bromide (0.2 μg/mL). The gels were run at 100 V for about 40 min and visualised under UV transillumination.
This assay is based on the fact that human Topo II can decatenate interlinked double-stranded DNA molecules.

[3] = tested on: MCF7 breast cancer cell line; test: MTT cytotoxicity assay, MCF7; settings: MCF7, MTT
Method: as §1
The newly prepared compounds were screened against three cancer cell lines: namely, breast cancer cell line MCF7, non-small cell lung cancer (NSCLC) cell line A549, and renal cancer cell line A498, using the MTT colorimetric assay.

[4] = read-out: Cytotoxicity IC50 A549± SD, MTT, A549, 24 h treatment, mean ± SD of two independent assays
[5] = read-out: Cytotoxicity IC50 A498± SD, MTT, A498, 24 h treatment, mean ± SD of two independent assays

Sequence of human topoisomerase II (P11388 whole entry): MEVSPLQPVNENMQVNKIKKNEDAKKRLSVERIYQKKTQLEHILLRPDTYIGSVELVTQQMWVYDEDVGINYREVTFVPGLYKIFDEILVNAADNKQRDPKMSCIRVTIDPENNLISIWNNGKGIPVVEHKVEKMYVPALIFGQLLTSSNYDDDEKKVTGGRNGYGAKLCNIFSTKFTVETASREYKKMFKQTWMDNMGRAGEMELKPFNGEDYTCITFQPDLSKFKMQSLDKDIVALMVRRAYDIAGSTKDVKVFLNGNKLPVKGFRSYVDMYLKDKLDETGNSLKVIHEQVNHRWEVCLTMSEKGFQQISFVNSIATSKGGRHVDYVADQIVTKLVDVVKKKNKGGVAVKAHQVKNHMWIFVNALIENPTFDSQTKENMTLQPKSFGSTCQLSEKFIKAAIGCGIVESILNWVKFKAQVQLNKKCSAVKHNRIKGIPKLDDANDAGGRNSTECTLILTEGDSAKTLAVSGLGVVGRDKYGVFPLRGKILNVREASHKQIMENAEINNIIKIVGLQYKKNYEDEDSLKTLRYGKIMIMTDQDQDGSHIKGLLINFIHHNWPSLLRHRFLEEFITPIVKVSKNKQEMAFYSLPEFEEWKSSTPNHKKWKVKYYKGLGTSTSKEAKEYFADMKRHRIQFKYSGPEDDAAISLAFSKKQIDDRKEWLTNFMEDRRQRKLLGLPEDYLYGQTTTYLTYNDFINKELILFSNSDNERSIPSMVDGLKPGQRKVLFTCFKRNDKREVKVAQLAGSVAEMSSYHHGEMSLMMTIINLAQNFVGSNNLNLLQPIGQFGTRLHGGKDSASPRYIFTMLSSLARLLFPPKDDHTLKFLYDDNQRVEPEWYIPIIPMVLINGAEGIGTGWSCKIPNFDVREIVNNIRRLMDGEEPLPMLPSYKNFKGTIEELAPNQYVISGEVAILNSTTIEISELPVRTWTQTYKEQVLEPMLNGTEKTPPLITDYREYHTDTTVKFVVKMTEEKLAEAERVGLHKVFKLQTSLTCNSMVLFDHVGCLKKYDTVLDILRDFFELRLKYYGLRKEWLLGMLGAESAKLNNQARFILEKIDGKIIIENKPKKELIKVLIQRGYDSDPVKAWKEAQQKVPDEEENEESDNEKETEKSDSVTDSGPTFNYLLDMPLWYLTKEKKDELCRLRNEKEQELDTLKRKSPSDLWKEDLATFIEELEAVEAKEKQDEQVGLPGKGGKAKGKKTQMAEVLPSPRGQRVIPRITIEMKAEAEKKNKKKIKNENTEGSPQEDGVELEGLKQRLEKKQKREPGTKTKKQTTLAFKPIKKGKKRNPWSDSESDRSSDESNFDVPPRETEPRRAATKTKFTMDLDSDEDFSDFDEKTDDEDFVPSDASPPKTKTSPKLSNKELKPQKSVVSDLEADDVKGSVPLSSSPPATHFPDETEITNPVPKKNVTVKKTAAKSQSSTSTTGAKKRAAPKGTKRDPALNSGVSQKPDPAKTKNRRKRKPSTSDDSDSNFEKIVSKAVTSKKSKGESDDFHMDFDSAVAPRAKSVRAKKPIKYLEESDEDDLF

Compound	%inh TOPO II (human topoisomerase II; conc 0.1 (μM)) [%]	%inh TOPO II (human topoisomerase II; conc 1 (μM)) [%]	%inh TOPO II (human topoisomerase II; conc 10 (μM)) [%]	%inh TOPO II (human topoisomerase II; conc 100 (μM)) [%]	IC50 (human topoisomerase II) [µM]	IC50 [1, 4] [µM]	IC50 [2, 5] [µM]	other results
COc1cccc2c1C(=O)c1c(O)c3c(c(O)c1C2=O)C[C@@](O)(C(=O)CO)C[C@@H]3O[C@H]1C[C@H](N)[C@H](O)[C@H](C)O1 [Doxorubicin, reference compound]	30	51	77	90				IC50 ([1]; read-out: Cytotoxicity IC50 A549± SD): 0.013 µM; IC50 ([2]; read-out: Cytotoxicity IC50 A498± SD): 0.007 µM
CCOC(=O)C1=C(C)N=C2SC=C(NC(=O)CCl)N2C1c1ccc(OC)cc1OC (stereo not drawn) [Compound 5, ethyl 3–(2-chloroacetamido)-5–(2,4-dimethoxyphenyl)-7-methyl-5H-thiazolo[3,2-a]pyrimidine-6-carboxylate]								melting point: 150 to 152 °C
ethyl 4–(2,4-dimethoxyphenyl)-6-methyl-2-thioxo-1,2,3,6-tetrahydropyrimidine-5-carboxylate [Compound 1]								% viability ([3]; 0.4ug): 81.002%; % viability ([3]; 1.6ug): 67.624%; % viability ([3]; 6.3ug): 61.271%; % viability ([3]; 25ug): 51.07%; % viability ([3]; 100ug): 44.533%
Ethyl 5–(2,4-dimethoxyphenyl)-7-methyl-3-((2-oxo-2-(piperazin-1-yl)ethyl)amino)-5H-thiazolo[3,2-a]pyrimidine-6-carboxylate [Compound 6c]								% viability ([3]; 0.4ug): 77.067%; % viability ([3]; 1.6ug): 70.045%; % viability ([3]; 6.3ug): 60.702%; % viability ([3]; 25ug): 51.13%; % viability ([3]; 100ug): 43.771%
CCOC(=O)C1=C(C)N=c2sc(=Cc3ccc(OC)cc3OC)c(=O)n2C1c1ccc(OC)cc1OC (stereo not drawn) [Compound 3c, Ethyl 2–(2,4-dimethoxybenzylidene)-5–(2,4-dimethoxyphenyl)-7-methyl-3-oxo-2,3-dihydro-5H-thiazolo[3,2-a]pyrimidine-6-carboxylate]	31	45	63	89	1.39 ± 0.08	0.019	0.009	
CCOC(=O)C1=C(C)N=C2SC=C(NC(=O)c3ccc(Cl)cc3)N2C1c1ccc(OC)cc1OC (stereo not drawn) [Compound 4a, Ethyl 3–(4-chlorobenzamido)-5–(2,4-dimethoxyphenyl)-7-methyl-5H-thiazolo[3,2-a]pyrimidine-6-carboxylate]								melting point: 150 to 152 °C
CCOC(=O)C1=C(C)N=C2SC=C(N)N2C1c1ccc(OC)cc1OC (stereo not drawn) [Compound 2, ethyl 3-amino-5–(2,4-dimethoxyphenyl)-7-methyl-5H-thiazolo[3,2-a] pyrimidine-6-carboxylate]						0.023	0.332	melting point: 172 to 174 °C

Now from value to compound, other results behind:

%inh TOPO II (human topoisomerase II; conc 0.1 (μM)) [%]	%inh TOPO II (human topoisomerase II; conc 1 (μM)) [%]	%inh TOPO II (human topoisomerase II; conc 10 (μM)) [%]	%inh TOPO II (human topoisomerase II; conc 100 (μM)) [%]	IC50 (human topoisomerase II) [µM]	Compound	IC50 [1, 4] [µM]	IC50 [2, 5] [µM]	other results
28	44	67	88	1.51 ± 0.09	CCOC(=O)C1=C(C)N=C2SC=C(NC(=O)CN3CCOCC3)N2C1c1ccc(OC)cc1OC (stereo not drawn) [Compound 6b]	0.006	0.01	
28	52	71	88	1.05 ± 0.06	CCOC(=O)C1=C(C)N=C2SC=C(NC(=O)Nc3ccc(Cl)c(C(F)(F)F)c3)N2C1c1ccc(OC)cc1OC (stereo not drawn) [Compound 7b, Ethyl 3–(3-(4-chloro-3-(trifluoromethyl)phenyl)ureido)-5–(2,4-dimethoxyphenyl)-7-methyl-5H-thiazolo[3,2-a]pyrimidine-6-carboxylate]	0.019	0.009	
26	42	67	83	1.88 ± 0.11	CCOC(=O)C1=C(C)N=C2SC=C(NC(=O)CN3CCN(CC)CC3)N2C1c1ccc(OC)cc1OC (stereo not drawn) [Compound 6a]	0.008	0.002	
20	34	57	84	3.56 ± 0.21	CCOC(=O)C1=C(C)N=C2SC=C(NC(=O)Nc3ccc(Cl)cc3)N2C1c1ccc(OC)cc1OC (stereo not drawn) [Compound 7a, Ethyl 3–(3-(4-chlorophenyl)ureido)-5–(2,4-dimethoxyphenyl)-7-methyl-5H-thiazolo[3,2-a]pyrimidine-6-carboxylate]			
